According to ChEMBL document CHEMBL1201862, “PubChem BioAssay data set” (2004):
Calls of active or inactive are those of the source.

Experiments:
[1] = molecular target: T1, Cytochrome P450 1A2 (Homo sapiens, UniProt P05177);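 also: PubChem cytochrome P450 panel assay, CYP1A2 panel member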
T1 sequence (P05177 whole entry): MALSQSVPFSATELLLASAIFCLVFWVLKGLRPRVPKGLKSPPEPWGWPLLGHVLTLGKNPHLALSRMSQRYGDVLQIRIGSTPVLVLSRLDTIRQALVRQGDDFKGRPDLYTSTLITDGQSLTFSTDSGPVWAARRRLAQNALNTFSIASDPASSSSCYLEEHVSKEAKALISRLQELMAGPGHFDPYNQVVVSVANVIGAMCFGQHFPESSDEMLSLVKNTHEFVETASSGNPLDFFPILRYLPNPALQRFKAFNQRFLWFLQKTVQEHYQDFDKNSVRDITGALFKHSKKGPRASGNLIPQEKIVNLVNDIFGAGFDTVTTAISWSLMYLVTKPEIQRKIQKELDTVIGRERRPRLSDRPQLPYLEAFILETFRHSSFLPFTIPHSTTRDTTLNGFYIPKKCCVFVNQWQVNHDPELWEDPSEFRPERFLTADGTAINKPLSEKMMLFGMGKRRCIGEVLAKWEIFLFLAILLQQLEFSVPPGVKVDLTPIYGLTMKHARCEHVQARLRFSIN

[2] = molecular target: Cytochrome P450 2C9 (Homo sapiens, UniProt P11712)
[3] = molecular target: T2, RNA-binding protein pos-1 (Caenorhabditis elegans, UniProt G5EF15); assay: disruptors of C. elegans POS-1 RNA interaction – biochemical, fluorescence polarization, dose response (AID 1964);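 also: purified POS-1 fused to maltose binding protein made in E. coli; potency of compounds blocking POS-1 binding to fluorescent RNA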
T2 sequence (G5EF15 whole entry): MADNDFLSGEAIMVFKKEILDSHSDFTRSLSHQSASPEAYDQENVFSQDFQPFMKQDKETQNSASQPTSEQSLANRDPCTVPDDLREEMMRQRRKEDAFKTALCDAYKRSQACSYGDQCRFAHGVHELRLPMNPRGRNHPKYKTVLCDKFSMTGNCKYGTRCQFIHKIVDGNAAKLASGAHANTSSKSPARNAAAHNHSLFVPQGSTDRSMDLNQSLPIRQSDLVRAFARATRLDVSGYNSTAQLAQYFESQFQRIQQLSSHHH

[4] = molecular target: T3, Zinc finger protein mex-5 (Caenorhabditis elegans, UniProt Q9XUB2); assay: potency of MEX-5 RNA-binding blockers – biochemical, C. elegans, fluorescence polarization, dose response (AID 1960)
T3 sequence (Q9XUB2 whole entry): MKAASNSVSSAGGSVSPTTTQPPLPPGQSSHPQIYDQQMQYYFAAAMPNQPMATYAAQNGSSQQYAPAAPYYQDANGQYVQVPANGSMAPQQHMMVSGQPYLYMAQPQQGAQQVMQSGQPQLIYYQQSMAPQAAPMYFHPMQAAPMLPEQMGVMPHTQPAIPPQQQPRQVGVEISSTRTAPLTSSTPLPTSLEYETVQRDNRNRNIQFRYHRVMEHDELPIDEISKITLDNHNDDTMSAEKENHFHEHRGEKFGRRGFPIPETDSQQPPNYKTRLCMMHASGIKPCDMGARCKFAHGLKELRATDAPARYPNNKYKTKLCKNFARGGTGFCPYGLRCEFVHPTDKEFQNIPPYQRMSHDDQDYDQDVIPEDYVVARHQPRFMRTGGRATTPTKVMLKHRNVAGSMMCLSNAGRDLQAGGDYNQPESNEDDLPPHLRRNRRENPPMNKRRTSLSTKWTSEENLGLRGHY

[5] = molecular target: Intestinal-type alkaline phosphatase (Mus musculus, UniProt P24822); assay: PubChem AID 488785; format: functional
[6] = molecular target: T4, Alkaline phosphatase, tissue-nonspecific isozyme (Homo sapiens, UniProt P05186); assay: TNAP enzyme inhibition by screening hits, dose response, selectivity assay for mouse IAP inhibitor project, biochemical, human TNAP, uHTS hits (AID 488906); format: functional
T4 sequence (P05186 whole entry): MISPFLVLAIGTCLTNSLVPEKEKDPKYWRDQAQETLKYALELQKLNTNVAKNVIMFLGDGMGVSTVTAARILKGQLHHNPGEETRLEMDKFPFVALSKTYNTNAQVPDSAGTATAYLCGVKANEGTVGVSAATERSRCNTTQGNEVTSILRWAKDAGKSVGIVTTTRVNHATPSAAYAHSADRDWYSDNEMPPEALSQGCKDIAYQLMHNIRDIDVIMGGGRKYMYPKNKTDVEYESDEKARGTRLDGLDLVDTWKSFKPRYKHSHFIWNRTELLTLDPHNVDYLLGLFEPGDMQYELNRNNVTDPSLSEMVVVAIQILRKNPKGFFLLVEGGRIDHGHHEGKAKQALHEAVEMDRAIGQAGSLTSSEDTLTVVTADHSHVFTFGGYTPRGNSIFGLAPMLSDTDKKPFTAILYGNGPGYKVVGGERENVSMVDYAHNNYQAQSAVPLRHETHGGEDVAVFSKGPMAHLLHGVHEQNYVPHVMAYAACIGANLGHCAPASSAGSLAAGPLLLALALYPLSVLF

[7] = molecular target: Intestinal-type alkaline phosphatase (Homo sapiens, UniProt P09923); assay: inhibition of human intestinal alkaline phosphatase – biochemical, dose response (AID 488876); format: functional
[8] = molecular target: Genome polyprotein (dengue virus type 2, UniProt P29990); assay: flavivirus cap methylation enzyme inhibition – biochemical, confirmation dose response, primary screen (AID 588689); format: functional
[9] = molecular target: DNA (cytosine-5)-methyltransferase 1 (Homo sapiens, UniProt P26358); assay: inhibition of DNA methylation by DNMT1 – biochemical, fluorescent molecular beacon, confirmation (AID 602386); format: functional
[10] = A Cell Based Secondary Assay To Explore Cytotoxicity of Compounds that Sensitize Mycobacterium Tuberculosis to Beta-Lactam Antibiotics.; format: functional
[11] = HPDE-C7 pancreatic duct cell viability loss – fluorescence, HTS (AID 430); format: functional, cell-based; settings: Homo sapiens
[12] = viability loss of HPDE-C7K cells – cell-based, fluorescence, HTS, primary screen (AID 431); format: functional; settings: Homo sapiens
[13] = molecular target: T5, Ubiquitin-conjugating enzyme E2 N (Homo sapiens, UniProt P61088); format: functional;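 also: Dose-response confirmation in a TR-FRET assay detecting UBC13-driven polyubiquitin chain formation, inhibition measured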
T5 sequence (P61088 whole entry): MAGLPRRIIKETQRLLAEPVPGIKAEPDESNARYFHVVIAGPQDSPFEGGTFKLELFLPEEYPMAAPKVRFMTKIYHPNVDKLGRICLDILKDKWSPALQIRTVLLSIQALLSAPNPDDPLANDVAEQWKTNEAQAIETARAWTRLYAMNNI

[14] = molecular target: T6, Hexokinase HKDC1 (Homo sapiens, UniProt Q2TB90); assay: activation of HKDC1 glucose phosphorylation – biochemical, W721R variant, dose response (AID 504730); format: functional
T6 sequence (Q2TB90 whole entry): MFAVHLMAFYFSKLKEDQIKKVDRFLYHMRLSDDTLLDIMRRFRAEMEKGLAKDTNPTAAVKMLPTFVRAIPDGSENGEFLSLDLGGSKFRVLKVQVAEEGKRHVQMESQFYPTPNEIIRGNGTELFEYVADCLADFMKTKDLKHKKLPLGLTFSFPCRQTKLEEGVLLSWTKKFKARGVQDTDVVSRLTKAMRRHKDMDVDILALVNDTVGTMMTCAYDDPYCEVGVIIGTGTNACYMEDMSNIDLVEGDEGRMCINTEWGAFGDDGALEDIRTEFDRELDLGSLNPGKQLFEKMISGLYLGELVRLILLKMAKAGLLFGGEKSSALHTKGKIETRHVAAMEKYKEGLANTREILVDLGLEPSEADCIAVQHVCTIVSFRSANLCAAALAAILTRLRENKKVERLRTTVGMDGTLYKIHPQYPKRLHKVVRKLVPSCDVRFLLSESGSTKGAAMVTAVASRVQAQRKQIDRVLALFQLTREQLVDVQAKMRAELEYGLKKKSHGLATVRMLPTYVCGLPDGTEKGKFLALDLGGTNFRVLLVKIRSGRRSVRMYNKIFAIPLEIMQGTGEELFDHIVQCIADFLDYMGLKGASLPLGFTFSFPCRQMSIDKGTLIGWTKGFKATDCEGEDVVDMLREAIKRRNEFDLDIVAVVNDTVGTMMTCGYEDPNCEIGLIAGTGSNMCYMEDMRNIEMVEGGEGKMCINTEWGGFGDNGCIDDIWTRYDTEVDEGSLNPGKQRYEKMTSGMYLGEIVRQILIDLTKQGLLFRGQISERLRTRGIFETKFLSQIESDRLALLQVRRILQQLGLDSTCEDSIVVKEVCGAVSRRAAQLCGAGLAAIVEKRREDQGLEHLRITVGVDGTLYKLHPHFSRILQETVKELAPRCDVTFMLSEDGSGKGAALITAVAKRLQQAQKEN

[15] = tested on: Escherichia coli; assay: microbe, parasite or virus in culture
[16] = molecular target: T7, CAAX prenyl protease 2 (Saccharomyces cerevisiae S288c, UniProt Q03530); format: biochemical
T7 sequence (Q03530 whole entry): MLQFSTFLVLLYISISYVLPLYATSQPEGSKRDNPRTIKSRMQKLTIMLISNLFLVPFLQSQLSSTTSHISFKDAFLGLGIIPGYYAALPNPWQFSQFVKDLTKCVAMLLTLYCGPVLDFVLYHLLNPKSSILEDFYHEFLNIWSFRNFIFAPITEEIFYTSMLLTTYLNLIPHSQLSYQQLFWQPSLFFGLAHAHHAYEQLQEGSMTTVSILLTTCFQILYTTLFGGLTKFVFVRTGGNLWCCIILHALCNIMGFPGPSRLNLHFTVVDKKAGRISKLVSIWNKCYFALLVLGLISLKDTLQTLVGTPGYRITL

[17] = molecular target: CAAX prenyl protease 1 (Saccharomyces cerevisiae S288c, UniProt P47154); assay: yeast CAAX protease Ste24 inhibition – biochemical, S. cerevisiae, plate reader, cherry-pick, dose response (AID 488815)
[18] = Trypanosoma cruzi growth suppression in host cells – NIH3T3 host cells, beta-gal luminescence, confirmation (AID 2044); format: functional, cell-based;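 also: intracellular parasites grown in NIH/3T3 mouse fibroblasts as host cells; luminescent beta-galactosidase reporter signal from transgenic T. cruzi replicating inside host cells; inhibitors lower the luminescence signal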
[19] = NIH3T3 cell viability loss – ATP luminescence, mouse fibroblasts, counter-screen, dose response (AID 2010); format: functional, cell-based;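 also: cells exposed to compound for about 90 hours before reading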
[20] = molecular target: T8, Microphthalmia-associated transcription factor (Homo sapiens, UniProt O75030); assay: reducers of TRPM1 reporter luminescence, concentration series – cell-based, SK-MEL-5, cherry-picked, set 3, MITF inhibitor project, dose response (AID 493073); format: functional;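 also: SK-MEL-5 melanoma cells with luciferase driven by the MITF target TRPM1 promoter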
T8 sequence (O75030 whole entry): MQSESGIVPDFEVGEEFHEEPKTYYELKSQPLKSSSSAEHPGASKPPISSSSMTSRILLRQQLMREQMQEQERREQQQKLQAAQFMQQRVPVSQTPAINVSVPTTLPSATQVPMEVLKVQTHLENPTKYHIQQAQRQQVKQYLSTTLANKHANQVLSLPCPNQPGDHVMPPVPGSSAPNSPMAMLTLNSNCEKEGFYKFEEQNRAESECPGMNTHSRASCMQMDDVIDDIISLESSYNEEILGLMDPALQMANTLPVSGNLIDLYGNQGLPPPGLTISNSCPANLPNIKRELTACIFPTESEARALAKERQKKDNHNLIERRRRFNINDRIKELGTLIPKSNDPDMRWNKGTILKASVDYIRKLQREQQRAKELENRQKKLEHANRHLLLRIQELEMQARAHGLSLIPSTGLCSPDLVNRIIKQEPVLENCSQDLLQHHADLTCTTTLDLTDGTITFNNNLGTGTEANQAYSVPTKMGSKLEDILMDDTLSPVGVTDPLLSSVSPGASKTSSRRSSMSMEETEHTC

[21] = tested on: A-375; assay: MITF: Counter assay: A375 proliferation Measured in Cell-Based System Using Plate Reader - 2084-03_Inhibitor_Dose_DryPowder_Activity. [Related pubchem assays (depositor defined):AID488944]; format: functional; settings: Homo sapiens
[22] = reduction of Shn3 3'UTR-driven luciferase in osteoblasts – cell-based, Clone20 osteoblasts, firefly luciferase, cherry-picked, dose response (AID 624132); format: functional;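 also: firefly luciferase luminescence from reporter carrying the Shn3 3'UTR in osteoblasts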
[23] = loss of viability in HepG2 cells – cell-based, CellTiter-Glo, cherry-picked, cytotoxicity control for Shn3 inhibitor project, dose response (AID 624134); format: functional
[24] = molecular target: Bifunctional protein GlmU (Mycobacterium tuberculosis, UniProt P9WMN3); assay: Inhibitors of Mycobacterial Glucosamine-1-phosphate acetyl transferase (GlmU). Secondary screen.; parameters: species or system Mycobacterium tuberculosis H37Rv
[25] = molecular target: Induced myeloid leukemia cell differentiation protein Mcl-1 (Homo sapiens, UniProt Q07820); format: functional
[26] = molecular target: DNA dC->dU-editing enzyme APOBEC-3A (Homo sapiens, UniProt P31941); assay: A3A deaminase inhibition for selectivity – biochemical, dose response (AID 504722); format: functional
[27] = molecular target: DNA dC->dU-editing enzyme APOBEC-3G (Homo sapiens, UniProt Q9HC16); assay: Dose Response confirmation of small molecule APOBEC3G DNA Deaminase Inhibitors via a fluorescence-based single-stranded DNA deaminase assay. [Related pubchem assays (depositor defined):AID493012, AID493028]; format: functional
DNA dC->dU-editing enzyme APOBEC-3G, sequence (Q9HC16 whole entry): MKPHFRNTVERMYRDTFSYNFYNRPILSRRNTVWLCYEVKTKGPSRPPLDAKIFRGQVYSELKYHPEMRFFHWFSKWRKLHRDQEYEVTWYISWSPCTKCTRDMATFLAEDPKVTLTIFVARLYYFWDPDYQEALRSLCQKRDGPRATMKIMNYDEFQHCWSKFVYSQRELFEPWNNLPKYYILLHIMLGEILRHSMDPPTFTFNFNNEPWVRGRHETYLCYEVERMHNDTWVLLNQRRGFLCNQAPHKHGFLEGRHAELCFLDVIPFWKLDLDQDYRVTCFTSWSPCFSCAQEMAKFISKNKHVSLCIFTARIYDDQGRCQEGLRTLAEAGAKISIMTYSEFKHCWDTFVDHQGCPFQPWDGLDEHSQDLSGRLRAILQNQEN

Intestinal-type alkaline phosphatase (Homo sapiens, UniProt P09923), sequence (P09923 whole entry): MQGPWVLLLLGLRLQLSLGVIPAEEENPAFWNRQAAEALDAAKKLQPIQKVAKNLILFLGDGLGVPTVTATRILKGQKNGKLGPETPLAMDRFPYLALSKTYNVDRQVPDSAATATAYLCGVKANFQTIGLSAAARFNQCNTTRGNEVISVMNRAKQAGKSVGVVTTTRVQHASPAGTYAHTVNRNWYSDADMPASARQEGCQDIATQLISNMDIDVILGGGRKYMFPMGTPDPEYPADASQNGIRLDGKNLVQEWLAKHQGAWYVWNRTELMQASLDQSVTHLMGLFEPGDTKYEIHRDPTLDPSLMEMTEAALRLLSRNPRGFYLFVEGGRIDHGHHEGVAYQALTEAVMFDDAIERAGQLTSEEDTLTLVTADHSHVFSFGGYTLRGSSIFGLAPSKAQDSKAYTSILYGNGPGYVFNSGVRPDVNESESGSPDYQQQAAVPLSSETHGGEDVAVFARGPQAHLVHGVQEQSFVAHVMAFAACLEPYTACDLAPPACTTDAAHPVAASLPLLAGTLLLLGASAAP
Intestinal-type alkaline phosphatase (Mus musculus, UniProt P24822), sequence (P24822 whole entry): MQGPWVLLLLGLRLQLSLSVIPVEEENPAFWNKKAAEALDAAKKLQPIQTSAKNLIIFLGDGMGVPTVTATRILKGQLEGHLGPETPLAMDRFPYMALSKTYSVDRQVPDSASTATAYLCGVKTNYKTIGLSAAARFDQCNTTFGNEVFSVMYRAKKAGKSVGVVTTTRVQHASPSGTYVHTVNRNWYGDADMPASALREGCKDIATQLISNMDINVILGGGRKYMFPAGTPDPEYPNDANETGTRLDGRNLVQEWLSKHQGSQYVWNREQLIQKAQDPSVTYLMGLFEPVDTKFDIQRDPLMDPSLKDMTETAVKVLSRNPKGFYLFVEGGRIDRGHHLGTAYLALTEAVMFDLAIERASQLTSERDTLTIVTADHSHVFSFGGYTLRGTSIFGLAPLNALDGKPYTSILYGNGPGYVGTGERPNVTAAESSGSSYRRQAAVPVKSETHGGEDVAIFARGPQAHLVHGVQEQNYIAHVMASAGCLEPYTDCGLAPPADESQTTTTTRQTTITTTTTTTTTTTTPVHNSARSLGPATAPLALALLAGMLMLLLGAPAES
DNA dC->dU-editing enzyme APOBEC-3A, sequence (P31941 whole entry): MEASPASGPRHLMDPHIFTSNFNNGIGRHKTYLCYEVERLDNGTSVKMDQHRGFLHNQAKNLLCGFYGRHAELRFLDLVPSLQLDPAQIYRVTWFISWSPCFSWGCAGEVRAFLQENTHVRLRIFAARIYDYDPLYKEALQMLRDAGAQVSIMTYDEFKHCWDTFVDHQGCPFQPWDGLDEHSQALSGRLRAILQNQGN
CAAX prenyl protease 1, sequence (P47154 whole entry): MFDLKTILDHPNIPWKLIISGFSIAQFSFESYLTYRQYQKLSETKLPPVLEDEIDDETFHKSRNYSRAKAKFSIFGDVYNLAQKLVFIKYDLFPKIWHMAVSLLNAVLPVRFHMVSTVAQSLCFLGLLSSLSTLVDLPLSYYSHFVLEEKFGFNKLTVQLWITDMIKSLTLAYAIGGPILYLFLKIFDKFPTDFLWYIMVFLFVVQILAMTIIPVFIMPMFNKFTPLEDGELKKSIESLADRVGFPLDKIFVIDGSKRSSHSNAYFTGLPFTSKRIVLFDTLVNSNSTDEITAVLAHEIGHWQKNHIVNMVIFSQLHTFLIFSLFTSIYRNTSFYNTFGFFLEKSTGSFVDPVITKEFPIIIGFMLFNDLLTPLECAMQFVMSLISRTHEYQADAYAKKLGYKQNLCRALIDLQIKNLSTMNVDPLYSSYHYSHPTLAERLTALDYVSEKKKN
Bifunctional protein GlmU, sequence (P9WMN3 whole entry): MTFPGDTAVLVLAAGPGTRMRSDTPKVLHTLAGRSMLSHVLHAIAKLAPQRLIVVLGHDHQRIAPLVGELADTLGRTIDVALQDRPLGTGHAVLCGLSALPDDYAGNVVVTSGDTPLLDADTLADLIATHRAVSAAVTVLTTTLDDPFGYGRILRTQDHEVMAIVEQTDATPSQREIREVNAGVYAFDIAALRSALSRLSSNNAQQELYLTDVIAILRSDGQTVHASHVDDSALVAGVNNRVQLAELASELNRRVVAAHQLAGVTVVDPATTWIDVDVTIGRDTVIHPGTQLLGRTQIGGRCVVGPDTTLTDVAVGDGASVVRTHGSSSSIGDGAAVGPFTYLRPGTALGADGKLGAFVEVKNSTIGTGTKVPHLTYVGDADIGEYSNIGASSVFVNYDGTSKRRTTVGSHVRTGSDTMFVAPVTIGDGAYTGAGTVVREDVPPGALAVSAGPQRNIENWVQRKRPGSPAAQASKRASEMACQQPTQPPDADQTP
Genome polyprotein, sequence (P29990 2492-3391 limits assumed): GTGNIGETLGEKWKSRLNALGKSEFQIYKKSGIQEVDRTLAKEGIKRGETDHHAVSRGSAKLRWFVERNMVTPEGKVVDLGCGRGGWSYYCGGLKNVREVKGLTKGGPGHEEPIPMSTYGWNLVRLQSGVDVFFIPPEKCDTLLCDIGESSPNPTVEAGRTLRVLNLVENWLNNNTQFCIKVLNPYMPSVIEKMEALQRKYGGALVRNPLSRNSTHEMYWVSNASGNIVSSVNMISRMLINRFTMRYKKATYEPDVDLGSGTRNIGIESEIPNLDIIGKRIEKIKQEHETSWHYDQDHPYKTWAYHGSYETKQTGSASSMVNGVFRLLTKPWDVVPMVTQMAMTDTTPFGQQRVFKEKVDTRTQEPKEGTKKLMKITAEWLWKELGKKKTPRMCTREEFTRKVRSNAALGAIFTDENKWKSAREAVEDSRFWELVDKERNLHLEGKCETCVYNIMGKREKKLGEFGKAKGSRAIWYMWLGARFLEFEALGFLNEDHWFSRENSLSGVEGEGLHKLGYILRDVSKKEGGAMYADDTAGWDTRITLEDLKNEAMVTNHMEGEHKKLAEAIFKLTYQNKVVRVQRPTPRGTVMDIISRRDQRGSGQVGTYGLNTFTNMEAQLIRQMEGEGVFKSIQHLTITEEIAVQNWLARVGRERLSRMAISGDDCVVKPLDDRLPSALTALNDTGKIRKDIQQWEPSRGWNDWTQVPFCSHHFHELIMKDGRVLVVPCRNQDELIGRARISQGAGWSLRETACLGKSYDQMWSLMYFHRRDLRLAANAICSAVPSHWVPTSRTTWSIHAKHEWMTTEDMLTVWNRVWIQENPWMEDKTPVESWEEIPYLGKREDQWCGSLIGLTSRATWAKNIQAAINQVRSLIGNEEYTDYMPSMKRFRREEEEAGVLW
Induced myeloid leukemia cell differentiation protein Mcl-1, sequence (Q07820 whole entry): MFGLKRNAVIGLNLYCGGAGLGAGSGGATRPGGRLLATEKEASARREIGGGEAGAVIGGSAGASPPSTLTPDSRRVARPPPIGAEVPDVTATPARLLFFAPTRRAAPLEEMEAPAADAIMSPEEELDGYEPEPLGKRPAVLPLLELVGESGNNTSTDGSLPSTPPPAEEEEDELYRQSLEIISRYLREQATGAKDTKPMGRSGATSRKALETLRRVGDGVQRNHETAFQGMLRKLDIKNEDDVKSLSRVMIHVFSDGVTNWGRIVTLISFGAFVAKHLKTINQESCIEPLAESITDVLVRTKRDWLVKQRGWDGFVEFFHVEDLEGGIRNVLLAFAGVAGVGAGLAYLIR
Cytochrome P450 2C9, sequence (P11712 whole entry, the tested form may be a part): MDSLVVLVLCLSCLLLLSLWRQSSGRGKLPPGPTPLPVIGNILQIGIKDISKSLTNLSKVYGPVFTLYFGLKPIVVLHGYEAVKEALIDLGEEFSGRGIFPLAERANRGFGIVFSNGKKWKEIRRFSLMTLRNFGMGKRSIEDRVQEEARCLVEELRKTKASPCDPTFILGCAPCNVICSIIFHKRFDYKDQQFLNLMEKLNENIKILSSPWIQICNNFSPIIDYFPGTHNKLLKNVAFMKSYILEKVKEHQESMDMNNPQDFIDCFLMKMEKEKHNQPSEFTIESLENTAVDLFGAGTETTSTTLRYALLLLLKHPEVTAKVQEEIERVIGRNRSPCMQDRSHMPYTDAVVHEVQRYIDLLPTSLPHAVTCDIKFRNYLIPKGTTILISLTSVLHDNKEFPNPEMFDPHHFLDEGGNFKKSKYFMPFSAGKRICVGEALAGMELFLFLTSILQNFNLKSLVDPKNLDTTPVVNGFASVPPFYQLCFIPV

## CS(=O)(=O)N1CCC2(CCN(c3ccccc3)CC2)CC1
[1]
  AC50: inconclusive
[2]
  AC50: inconclusive

## CN1C(=O)NC(=O)/C(=C\c2ccc([N+](=O)[O-])o2)C1=O
[3]
  EC50: 33.3 µM (active)
[4]
  EC50: 20.6 µM (active)
[5]
  IC50: > 100 µM (inactive)
[6]
  IC50: > 100 µM (inactive)
[7]
  IC50: > 100 µM (inactive)
[8]
  IC50: 42.6 µM (active)
[9]
  IC50: 2.08 µM (active)

## CCN(CC)CCCNC(=O)c1c(O)c2ccccc2n(Cc2ccccc2)c1=O
[10]
  CC50: 32 µM (active)
[11]
  EC50: > 20 µM (not active)
[12]
  EC50: > 20 µM (not active)
[13]
  IC50: > 20 µM (inactive)
[14]
  EC50: > 80 µM (inactive)
[15]
  AC50: 23.5 µM (active)

## COc1cc2c(cc1OC)C(C)=NC1(CCCCC1)C2
[16]
  AC50: 6.87 µM (active)
[17]
  AC50: 8.72 µM (active)

## Cc1ccc(-n2cc(CNCCCn3ccnc3C)c(-c3ccc(F)cc3)n2)cc1
[18]
  EC50: 1.77 µM (active)
[19]
  EC50: 14.4 µM (active)
[20]
  AC50: 7.58 µM (active)
[21]
  AC50: 21.2 µM (active)
[22]
  AC50: 20.6 µM (active)
[23]
  AC50: 16.7 µM (active)

## O=C1CSC(=S)N1/N=C/c1ccc(O)c(O)c1O
[3]
  EC50: 5.17 µM (inconclusive)
[4]
  EC50: 0.668 µM (inconclusive)
[24]
  IC50: 7.79 µM (active)
[25]
  IC50: 1.17 µM (active)
[5]
  IC50: 4.15 µM (active)
[6]
  IC50: 58.5 µM (active)
[7]
  IC50: > 100 µM (inactive)

## Sc1nnc(-c2ccccn2)n1/N=C/c1ccc(Cl)cc1
[26]
  IC50: > 100 µM (inactive)
[27]
  IC50: 3.33 µM (active)
